Assay results: US20070249635A1, “Fungicidal Mixtures Based on a Triazolopyrimidine Derivative and a Conazole” (BASF Aktiengesellschaft, priority 2003, published 2007)

Test system: Plasmopara viticola
Assay: activity against peronospora of grapevines caused by Plasmopara viticola (protective spray on potted vines, cultivar Riesling)
Type: in vivo
Conditions: individual active compound, untreated control 90% infection
Method: The active compounds, separately or jointly, were prepared as a stock solution comprising 0.25% by weight of active compound in acetone or DMSO. 1 % by weight of the emulsifier Uniperol® EL (wetting agent having emulsifying and dispersant action based on ethoxylated alkylphenols) was added to this solution, and the mixture was diluted with water to the desired concentration.
Use example—activity against peronospora of gravevines caused by Plasmopara viticola
Leaves of potted vines of the cultivar “Riesling” were sprayed to runoff point with an aqueous suspension having the concentration of active compound stated below. The next day, the undersides of the leaves were inoculated with an aqueous zoospore suspension of Plasmopara viticola. The grapevines were then initially placed in a water-vapor-saturated chamber at 24° C. for 48 hours and then in a greenhouse at 20-30° C. for 5 days. After this period of time, the plants were again placed in a humid chamber for 16 hours to promote sporangiophore eruption. The extent of the development of the disease on the undersides of the leaves was then determined visually.
The visually determined percentages of infected leaf areas were converted into efficacies as % of the untreated control:
The efficacy (E) is calculated as follows using Abbot's formula: E=(1−α/β)·100 • α corresponds to the fungicidal infection of the treated plants in % and • β corresponds to the fungicidal infection of the untreated (control) plants in %
An efficacy of 0 means that the infection level of the treated plants corresponds to that of the untreated control plants; an efficacy of 100 means that the treated plants were not infected.
The expected efficacies of combinations of active compounds were determined using Colby's formula (Colby, S.R. “Calculating synergistic and antagonistic responses of herbicide combinations”, Weeds, 15, 20-22, 1967) and compared with the observed efficacies. Colby's formula: E=x+y−x·y/100 • E expected efficacy, expressed in % of the untreated control, when using the mixture of the active compounds A and B at the concentrations a and b • x efficacy, expressed in % of the untreated control, when using the active compound A at the concentration a • y efficacy, expressed in % of the untreated control, when using the active compound B at the concentration b

SMILES | Efficacy in % of the untreated control (4 ppm in the spray liquor) | Efficacy in % of the untreated control (1 ppm in the spray liquor) | Efficacy in % of the untreated control (16 ppm in the spray liquor)
CC1CCN(c2c(-c3c(F)cccc3Cl)c(Cl)nc3ncnn23)CC1 [A] | 11% |  | 
C[C@H](Nc1c(-c2c(F)cc(F)cc2F)c(Cl)nc2ncnn12)C(F)(F)F [B] | 11% |  | 
CC1CCN(c2c(-c3c(F)cc(F)cc3F)c(Cl)nc3ncnn23)CC1 [I, 5-chloro-7-(4-methylpiperidin-1-yl)-6-(2,4,6-trifluorophenyl)-[1,2,4]triazolo[1,5-a]pyrimidine] | 56% |  | 
CC(C1CC1)C(O)(Cn1cncn1)c1ccc(Cl)cc1 (stereo not drawn) [II, 2-(4-chlorophenyl)-3-cyclopropyl-1-[1,2,4]triazol-1-ylbutan-2-ol] | 0% | 0% | 0%
